Here are results for four compounds from patent EP0404945A1 (priority 1989, dated 1990).

Where two headings read alike, the source gives them in different places.

Data set [1] relates to Helminthosporum saturem. It counts as cell-based.
The test system of data set [2] is Aspergillus niger. It counts as cell-based.
Data set [3] concerns Staphylococcus aureus. Put plainly: microbe, parasite or virus in culture. To be noted: read-out: Efficiency of the preparation, % Staphylococcus aureus. Format: cell-based.
Data set [4] relates to Fusarium oxysporum. Format: cell-based.
Data set [5] deals with Venturia inaequalis. Format: cell-based.
Data set [6] has as its system ascarid ovi. Put plainly: animal or person. Format: in vivo, pig.ascarid. Conditions: read-out: Death of ascarid ovi, % Tests laboratory.
Data set [7] has as its system Candida albicans. As to the kind of experiment: microbe, parasite or virus in culture. It counts as cell-based.
For data set [8], the system named is Alternaria radicina. It counts as cell-based.
Data set [9] has as its system Candida tropicalis. As to the kind of experiment: microbe, parasite or virus in culture. Format: cell-based.
For data set [10], the system named is Penicillium sporum. Format: cell-based.
In data set [11] the test system is Colibacillus. As to the kind of experiment: microbe, parasite or virus in culture. Conditions: read-out: Efficiency of the preparation, % Colibacillus. Format: cell-based.
Data set [12] deals with Infectant of poliomyelitis.
Data set [13] relates to houseflies. As to the kind of experiment: whole plant or invertebrate. Conditions: Musca domestica.
Data set [14] has as its system Virus of hepatitis B. Put plainly: microbe, parasite or virus in culture. Conditions: 0.5 h, read-out: Death of viruses (%) at 30 minutes exposure, Virus of hepatitis B.
Data set [15] has as its system virus of influenza, type A, (H1N1). As to the kind of experiment: microbe, parasite or virus in culture. To be noted: H1N1, 0.5 h, read-out: Death of viruses (%) at 30 minutes exposure, Virus of influenza A.
In data set [16] the test system is houseflies. To be noted: house fly, in vivo.
The conditions of data set [17]: in vivo; cited from earlier work.
Where [18] appears, read: 2 h, read-out: Death of test fungi, % to the control, Candida albicans 2 hrs.
Setting [19] is: 20 h, read-out: Death of test fungi, % to the control, Candida albicans 20 hrs.
Setting [20] is: 2 h, read-out: Death of test fungi, % to the control, Candida tropicalis 2 hrs.
Where [21] appears, read: 20 h, read-out: Death of test fungi, % to the control, Candida tropicalis 20 hrs.
The mark [22] stands for this setting: 72 h, read-out: Death of flies, % after 72 hours.

As to `O=[N+]([O-])c1ccc(C(O)C(CCl)NP(=O)(O)O)cc1` (stereo not drawn) [Example 2, 1-para-nitrophenyl-1--chloro-3-propanolamidophosphoric acid], the “Mycelium growth inhibition, % to the control, Helminthosporum saturem” value in data set [1] is 88%. Also, the “Mycelium growth inhibition, % to the control, Aspergillus niger” value in data set [2] is listed as 100%. For the same compound, the killing at 0.5 % in [3] and in data set [11] was 100% in each case. For the same compound, the “Mycelium growth inhibition, % to the control, Fusarium oxisporum” value in data set [4] was 69%. Also, the “Mycelium growth inhibition, % to the control, Venturia inaequalis” value in data set [5] was 64%. Moreover, in [6], the killing at 3 % worked out at 100%. The killing at 0.05 % turned out to be 99% in data set [7] (setting [18]), 100% in data set [7] (setting [19]), 90% in [9] (setting [20]) and 100% in data set [9] (setting [21]). Also, the “Mycelium growth inhibition, % to the control, Alternaria radicina” value in data set [8] is 60%. Also, the “Mycelium growth inhibition, % to the control, Penicillium sporum” value in data set [10] was 68%. For the same compound, the “Death of viruses (%) at 60 minutes exposure, Infectant of poliomyelitis” value in data set [12] was determined as 60%.

Turning to `O=S(=O)(NCl)c1ccccc1` [Known preparation], the mortality at 3 % in [13] (24 h, read-out: Death of flies, % after 24 hours) is 86%; in data set [13] (setting [22]) it was 92%. The mortality at 2 % in data set [13] (48 h, read-out: Death of flies, % after 48 hours) was found to be 81%; in [13] (setting [22]), 84%. Also, the killing at 1 % amounted to 50% in [14] and 25% in data set [15].

Consider `O=[N+]([O-])c1ccc(C(Cl)C(CCl)NP(=O)(O)O)cc1` (stereo not drawn) [Example 3], for which the “Mycelium growth inhibition, % to the control, Helminthosporum saturem” value in data set [1] is 100%. Further, the “Mycelium growth inhibition, % to the control, Aspergillus niger” value in [2] stood at 100%. Moreover, the killing at 0.5 % in data set [3] and in data set [11] was 100% each time. Also, the “Mycelium growth inhibition, % to the control, Fusarium oxisporum” value in data set [4] was determined as 68%. The “Mycelium growth inhibition, % to the control, Venturia inaequalis” value in data set [5] came out at 98%. Besides, the killing at 3 % in data set [6] was found to be 100%. In addition, the killing at 0.05 % in [7] (setting [18]) came out at 100%; in data set [7] (setting [19]) it was 100%; in data set [9] (setting [20]) it was 99%; in data set [9] (setting [21]) it was 100%. For the same compound, the “Mycelium growth inhibition, % to the control, Alternaria radicina” value in data set [8] was 80%. Besides, the killing at 1 % in data set [14] is 100%. The “Mycelium growth inhibition, % to the control, Penicillium sporum” value in data set [10] is 100%. Moreover, the “Death of viruses (%) at 60 minutes exposure, Infectant of poliomyelitis” value in data set [12] is 80%.

For `COP(=O)(OC)C(O)C(Cl)(Cl)Cl` (stereo not drawn) [Known insecticidal preparation, O,O-Dimethyl-(1-hydroxy-2,2,2-tri-chloroethyl)-phosphonate], the “Death of flies, % Tests laboratory” value in data set [16] came to 90%. In addition, in [16] (48 h), the “Death of flies, % after 48 hours” value is given as 81%. Further, the “Death of flies, % after 72 hours” value in data set [16] (72 h) is 84%. For the same compound, in data set [17], the LD50 is given as 225 - 1,200 mg/kg.
